Assay results published in patent US20220185832A1, “CD73 INHIBITORS” (BioArdis LLC, priority 2019, published 2022).

What follows are molecules tested against T1, Recombinant Human 5′-Nucleotidase (CD73) (Homo sapiens, UniProt P21589) (assay: CD73 Enzyme Assay). Settings: 0.5 nM human CD73, 30 μM AMP, PiColorLock phosphate detection, OD 635 nm; read-out: Potency (IC50).
T1 construct: CHO derived CD73 (Trp27-Lys547), with a C-terminal 6-His tag; 6-His (C); purchased R&D 5795-EN; host or cells: CHO
T1 sequence (P21589 27-547): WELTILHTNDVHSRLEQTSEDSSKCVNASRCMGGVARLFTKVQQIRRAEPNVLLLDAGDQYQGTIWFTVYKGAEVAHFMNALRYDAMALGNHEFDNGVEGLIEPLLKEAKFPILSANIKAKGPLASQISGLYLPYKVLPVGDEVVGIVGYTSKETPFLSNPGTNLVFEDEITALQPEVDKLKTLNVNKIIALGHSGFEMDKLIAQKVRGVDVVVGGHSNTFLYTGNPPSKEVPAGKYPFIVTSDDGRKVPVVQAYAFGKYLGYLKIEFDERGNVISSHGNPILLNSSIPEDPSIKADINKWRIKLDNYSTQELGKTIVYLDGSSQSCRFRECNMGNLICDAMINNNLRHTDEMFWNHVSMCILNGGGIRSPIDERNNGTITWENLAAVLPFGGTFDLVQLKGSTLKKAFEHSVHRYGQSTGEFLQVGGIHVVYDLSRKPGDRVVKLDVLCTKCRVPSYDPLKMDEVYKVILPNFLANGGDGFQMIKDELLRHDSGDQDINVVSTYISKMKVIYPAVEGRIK
Type: biochemical
Excerpt: Soluble recombinant CD73 catalyzes the conversion of adenosine monophosphate (AMP) to adenosine and inorganic phosphate. The phosphate detection reagent, PiColorLock™ (Innova Bioscience, Cat #303-0125) is based on the change in absorbance of the dye malachite green in the presence of inorganic phosphate (Pi) and this property can be exploited to measure any enzyme that generates Pi. Recombinant Human 5′-Nucleotidase (CD73) (R&D #5795-EN, CHO derived CD73 (Trp27-Lys547), with a C-terminal 6-His tag) was used in the enzymatic assay. This assay was run in a 384-well plate format (Corning® NBS™ 384 well plates, Cat #3640). The basic assay procedure involves two steps: 1) Enzyme reaction: The CD73 enzyme (R&D #5795-EN) is incubated in the presence or absence of compounds. AMP (sigma, cat #01930) is added to start the kinase reaction. 2) Detection step: “Gold mix” is added to the assay system, then stabilizers are added. After incubation the absorbance of the solution is read at OD 635 nm. The recorded OD signal is proportional to the enzyme activity.
Briefly, 25 μl human CD73 (0.5 nM final concentration) in the enzymatic buffer solutions (20 mM Tris, 25 mM NaCl, 1 mM MgCl2, pH 7.5, 0.005% Tween-20) were mixed with various concentrations of the test compound (dissolved in 100% DMSO). These solutions were incubated for 15 min at 25° C., and subsequently 25 μl AMP (30 μM final concentration) was added to start the reaction. The final reaction mixture of enzyme-substrate-compound was incubated for 20 min at 37° C. Meanwhile, “Gold mix” was prepared shortly before use by adding 1/100 vol. of accelerator to the PiColorLock™ Gold reagent. 12 μL/well of the “Gold mix” was added to assay plate containing 50 μL enzyme reaction buffer and incubated at 25° C. for 5 min. 5 μL/well stabilizer was added to the assay plate and incubated at 25° C. for 30 min. The absorbance of the well solutions was measured at 635 nm on a Spark 10M instrument (TECAN).
The percent (%) inhibition at each concentration of a compound was calculated relative to the OD value in the Max and Min control wells contained within each assay plate. The Max control wells contained enzyme and substrate as 0% inhibition, and the Min control wells only contained substrate without enzyme as 100% inhibition. The concentrations and percent inhibition values for a test compound are plotted and the concentration of the compound required to achieve 50% inhibition (IC50) was determined with a four-parameter logistic dose response equation.

O=P(O)(O)CP(=O)(O)OC[C@H]1O[C@@H](c2ccc3c(NCc4ccccc4)ncnc3c2)[C@@H](F)[C@@H]1O [Compound 11, [({[(2R,3R,4S,5S)-5-[4-(benzylamino)quinazolin-7-yl]-4-fluoro-3-hydroxyoxolan-2-yl]methoxy}(hydroxy)phosphoryl)methyl]phosphonic acid] and O=P(O)(O)CP(=O)(O)OC[C@H]1O[C@H](c2ccc3c(NCc4ccccc4)nc(Cl)nc3c2)[C@@H](F)[C@@H]1O [Compound 14, [({[(2R,3R,4S, 5R)-5-[4-(benzylamino)-2-chloroquinazolin-7-yl]-4-fluoro-3-hydroxyoxolan-2-yl]methoxy}(hydroxy)phosphoryl)methyl]phosphonic acid] cannot be ordered by IC50: > 1000 nM for the first, > 1000 nM for the second.

CN(c1nc(Cl)nc2cc([C@@H]3O[C@H](COP(=O)(O)CP(=O)(O)O)[C@@H](O)[C@@H]3F)ccc12)C1CCCC1 [Compound 15, (((((2R,3R,4S,5S)-5-(2-chloro-4-(cyclopentyl(methyl)amino)quinazolin-7-yl)-4-fluoro-3-hydroxytetrahydrofuran-2-yl)methoxy)(hydroxy)phosphoryl)methyl)phosphonic acid] and O=P(O)(O)CP(=O)(O)OC[C@H]1O[C@@H](c2ccc3c(OC4CCCC4)nc(Cl)nc3c2)[C@H](O)[C@@H]1O [Compound 33, (((((2R,3S,4R,5S)-5-(2-chloro-4-(cyclopentyloxy)quinazolin-7-yl)-3,4-dihydroxytetrahydrofuran-2-yl)methoxy)(hydroxy)phosphoryl)methyl)phosphonic acid] fall in the same range of IC50: 100 to 999 nM for the first, 100 to 999 nM for the second.

N#C[C@@]1(c2ccc3c(NCc4ccccc4)nc(Cl)nc3c2)O[C@H](COP(=O)(O)CP(=O)(O)O)[C@@H](O)[C@H]1O [Compound 16, (((((2R,3S,4R,5R)-5-(4-(benzylamino)-2-chloroquinazolin-7-yl)-5-cyano-3,4-dihydroxytetrahydrofuran-2-yl)methoxy)(hydroxy)phosphoryl)methyl)phosphonic acid] and C[C@@]1(O)[C@H](O)[C@@H](COP(=O)(O)CP(=O)(O)O)O[C@H]1c1ccc2c(NCc3ccccc3)nc(Cl)nc2c1 [Compound 34, (((((2R,3R,4R,5S)-5-(4-(benzylamino)-2-chloroquinazolin-7-yl)-3,4-dihydroxy-4-methyltetrahydrofuran-2-yl)methoxy)(hydroxy)phosphoryl)methyl)phosphonic acid] cannot be ordered by IC50: > 1000 nM for the first, > 1000 nM for the second.

O=P(O)(O)CP(=O)(O)OC[C@H]1O[C@@H](c2cc3nc(Cl)nc(NCc4ccccc4)c3cc2F)[C@H](O)[C@@H]1O [Compound 19, (((((2R,3S,4R,5S)-5-(4-(benzylamino)-2-chloro-6-fluoroquinazolin-7-yl)-3,4-dihydroxytetrahydrofuran-2-yl)methoxy)(hydroxy)phosphoryl)methyl)phosphonic acid] and O=P(O)(O)CP(=O)(O)OC[C@H]1O[C@@H](c2cccc3c(NCc4ccccc4)nc(Cl)nc23)[C@H](O)[C@@H]1O [Compound 32, (((((2R,3S,4R,5S)-5-(4-(benzylamino)-2-chloroquinazolin-8-yl)-3,4-dihydroxytetrahydrofuran-2-yl)methoxy)(hydroxy)phosphoryl)methyl)phosphonic acid] fall in the same range of IC50: 100 to 999 nM for the first, 100 to 999 nM for the second.

First: CCc1nc(NCc2ccccc2)c2ccc([C@@H]3O[C@H](COP(=O)(O)CP(=O)(O)O)[C@@H](O)[C@H]3O)cc2n1 [Compound 20, [({[(2R,3S,4R,5S)-5-[4-(benzylamino)-2-ethylquinazolin-7-yl]-3,4-dihydroxyoxolan-2-yl]methoxy}(hydroxy)phosphoryl)methyl]phosphonic acid]
Second: O=P(O)(O)CP(=O)(O)OC[C@H]1O[C@@H](c2ccc3c(N4CCC(c5ccccc5)C4)nc(Cl)nc3c2)[C@H](O)[C@@H]1O (stereo partly drawn) [Compound 35, (((((2R,3S,4R,5S)-5-(2-chloro-4-(3-phenylpyrrolidin-1-yl)quinazolin-7-yl)-3,4-dihydroxytetrahydrofuran-2-yl)methoxy)(hydroxy)phosphoryl)methyl)phosphonic acid]
The IC50 of the first is higher: 100 to 999 nM for the first, 10 to 99 nM for the second. The second is the more potent here.

O=P(O)(O)CP(=O)(O)OC[C@H]1O[C@@H](c2ccc3c(NCC4CCOC4)nc(Cl)nc3c2)[C@H](O)[C@@H]1O (stereo partly drawn) [Compound 21, [({[(2R,3S,4R,5S)-5-[2-chloro-4-[(oxolan-3-ylmethyl)amino]quinazolin-7-yl]-3,4-dihydroxyoxolan-2-yl]methoxy}(hydroxy)phosphoryl)methyl]phosphonic acid] and O=P(O)(O)CP(=O)(O)OC[C@H]1O[C@@H](c2ccc3c(N[C@H]4CCOC4)nc(Cl)nc3c2)[C@H](O)[C@@H]1O [Compound 37, (((((2R,3S,4R,5S)-5-(2-chloro-4-(((S)-tetrahydrofuran-3-yl)amino)quinazolin-7-yl)-3,4-dihydroxytetrahydrofuran-2-yl)methoxy)(hydroxy)phosphoryl)methyl)phosphonic acid] fall in the same range of IC50: 10 to 99 nM for the first, 10 to 99 nM for the second.

First: O=P(O)(O)CP(=O)(O)OC[C@H]1O[C@@H](c2ccc3c(N4CC5CCCC5C4)nc(Cl)nc3c2)[C@H](O)[C@@H]1O (stereo partly drawn) [Compound 24, [({[(2R,3S,4R,5S)-5-(2-chloro-4-{hexahydro-1H-cyclopenta[c]pyrrol-2-yl}quinazolin-7-yl)-3,4-dihydroxyoxolan-2-yl]methoxy}(hydroxy)phosphoryl)methyl]phosphonic acid]
Second: O=P(O)(O)CP(=O)(O)OC[C@H]1O[C@@H](c2ccc3c(N4CCCC4)nc(Cl)nc3c2)[C@H](O)[C@@H]1O [Compound 29, (((((2R,3S,4R,5S)-5-(2-chloro-4-(pyrrolidin-1-yl)quinazolin-7-yl)-3,4-dihydroxytetrahydrofuran-2-yl)methoxy)(hydroxy)phosphoryl)methyl)phosphonic acid]
The IC50 of the first is lower: < 10 nM for the first, 10 to 99 nM for the second. The first is the more potent here.

First: O=P(O)(O)CP(=O)(O)OC[C@H]1O[C@@H](c2ccc3c(NC4CCC(O)CC4)nc(Cl)nc3c2)[C@H](O)[C@@H]1O (stereo partly drawn) [Compound 26, (((((2R,3S,4R,5S)-5-(2-chloro-4-((4-hydroxycyclohexyl)amino)quinazolin-7-yl)-3,4-dihydroxytetrahydrofuran-2-yl)methoxy)(hydroxy)phosphoryl)methyl)phosphonic acid]
Second: COC1CCC(Nc2nc(Cl)nc3cc([C@@H]4O[C@H](COP(=O)(O)CP(=O)(O)O)[C@@H](O)[C@H]4O)ccc23)CC1 (stereo partly drawn) [Compound 27, [({[(2R,3S,4R,5S)-5-{2-chloro-4-[(4-methoxycyclohexyl)amino]quinazolin-7-yl}-3,4-dihydroxyoxolan-2-yl]methoxy}(hydroxy)phosphoryl)methyl]phosphonic acid]
The IC50 of the first is lower: 10 to 99 nM for the first, 100 to 999 nM for the second.

First: O=P(O)(O)CP(=O)(O)OC[C@H]1O[C@@H](c2ccc3c(N4CCc5ccccc54)nc(Cl)nc3c2)[C@H](O)[C@@H]1O [Compound 30, (((((2R,3S,4R,5S)-5-(2-chloro-4-(indolin-1-yl)quinazolin-7-yl)-3,4-dihydroxytetrahydrofuran-2-yl)methoxy)(hydroxy)phosphoryl)methyl)phosphonic acid]
Second: O=P(O)(O)CP(=O)(O)OC[C@H]1O[C@@H](c2ccc3c(N4CCc5ccccc5C4)nc(Cl)nc3c2)[C@H](O)[C@@H]1O [Compound 36, [({[(2R,3S,4R,5S)-5-[2-chloro-4-(3,4-dihydro-1H-isoquinolin-2-yl)quinazolin-7-yl]-3,4-dihydroxyoxolan-2-yl]methoxy}(hydroxy)phosphoryl)methyl]phosphonic acid]
The IC50 of the first is higher: 100 to 999 nM for the first, 10 to 99 nM for the second.
